Data taken from ChEMBL document CHEMBL4219257, “Novel 8-hydroxyquinoline derivatives targeting β-amyloid aggregation, metal chelation and oxidative stress against Alzheimer's disease” (Bioorg Med Chem, 2018).
The source made the active and inactive calls. No cut-off for these calls is given here.

Assays:
[1] = in vitro; conditions: PAMPA
Description: Permeability of the compound at 100 ug/ml after 10 hrs by PAMPA

[2] = molecular target: T1, Amyloid-beta precursor protein (Homo sapiens, UniProt P05067); assay: Inhibition of HFIP-pretreated amyloid beta (1 to 42) (unknown origin) self-induced aggregation at 10 uM after 48 hrs by thioflavin T-based fluorometric assay relative to control
[3] = molecular target: T1, Amyloid-beta precursor protein; assay: Inhibition of HFIP-pretreated amyloid beta (1 to 42) (unknown origin) self-induced aggregation after 48 hrs by thioflavin T-based fluorometric assay
[4] = Antioxidant activity assessed as trolox equivalents of AAPH radical scavenging activity at 10 uM preincubated for 15 mins followed by AAPH addition measured every minute for 120 mins by ORAC-FL assay; assay type: functional
[5] = Inhibition of Cu2+ - induced amyloid beta (1 to 42) (unknown origin) aggregation at 50 uM after 24 hrs by thioflavin T-based fluorometric assay relative to control
[6] = Inhibition of Zn2+ - induced amyloid beta (1 to 42) (unknown origin) aggregation at 50 uM after 24 hrs by thioflavin T-based fluorometric assay relative to control
[7] = tested on: PC-12; assay: Cytoprotection against H2O2-induced oxidative stress in rat PC12 cells assessed as increase in cell viability up to 10 uM after 24 hrs by MTT assay; assay type: functional, cell-based

T1 sequence (P05067 whole entry): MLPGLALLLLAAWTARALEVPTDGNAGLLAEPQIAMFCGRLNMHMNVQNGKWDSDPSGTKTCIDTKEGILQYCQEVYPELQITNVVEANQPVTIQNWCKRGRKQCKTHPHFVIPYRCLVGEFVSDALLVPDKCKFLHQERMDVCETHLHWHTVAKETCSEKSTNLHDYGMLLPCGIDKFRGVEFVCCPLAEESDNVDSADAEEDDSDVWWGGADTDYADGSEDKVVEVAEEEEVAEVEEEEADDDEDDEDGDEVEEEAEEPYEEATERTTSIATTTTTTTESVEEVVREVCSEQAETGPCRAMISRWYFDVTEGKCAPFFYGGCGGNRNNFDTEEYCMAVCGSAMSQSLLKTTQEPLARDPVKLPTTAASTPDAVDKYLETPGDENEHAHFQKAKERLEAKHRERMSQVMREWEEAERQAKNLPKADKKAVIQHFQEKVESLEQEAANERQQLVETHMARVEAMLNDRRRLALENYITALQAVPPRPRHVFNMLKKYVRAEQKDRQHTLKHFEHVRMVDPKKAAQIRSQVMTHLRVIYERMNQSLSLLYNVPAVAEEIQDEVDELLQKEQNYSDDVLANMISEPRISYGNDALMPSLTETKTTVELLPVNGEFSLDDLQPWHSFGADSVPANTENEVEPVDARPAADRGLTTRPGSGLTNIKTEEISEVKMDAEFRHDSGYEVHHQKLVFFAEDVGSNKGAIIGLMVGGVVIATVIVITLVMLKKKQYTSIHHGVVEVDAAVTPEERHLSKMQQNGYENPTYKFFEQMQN

Papp at 10 h, 100 ug/ml [1] | inhibition [2] | IC50 [3] | inhibition [5] | inhibition [6] | SMILES | Activity [4] | Activity [7]
 | 13.2% |  |  |  | O=C(/C=C/c1ccc([N+](=O)[O-])cc1)N1CCN(Cc2ccc(O)c3ncccc23)CC1 | 0.71 equiv | 
 | 12.3% |  |  |  | COc1ccc(/C=C/C(=O)N2CCN(Cc3ccc(O)c4ncccc34)CC2)cc1 | 1.25 equiv | 
18.6 ×10⁻⁶ cm/s | 73.4% | 5.05 µM | 62.1% | 52% | O=C(/C=C/c1ccc(F)cc1F)N1CCN(Cc2ccc(O)c3ncccc23)CC1 | 1.57 equiv | 
 | 8.65% |  |  |  | O=C(/C=C/c1ccc(Br)cc1)N1CCN(Cc2ccc(O)c3ncccc23)CC1 | 0.93 equiv | 
 | 55% | 8.86 µM | 69.8% | 66.5% | O=C(/C=C/c1ccccc1)N1CCN(Cc2ccc(O)c3ncccc23)CC1 | 1.65 equiv | 

More lines, now with the values behind:

SMILES | Papp at 10 h, 100 ug/ml [1] | inhibition [2] | IC50 [3] | inhibition [5] | inhibition [6] | Activity [4] | Activity [7]
C[C@]12CC[C@@H]3c4ccc(O)cc4CC[C@H]3[C@@H]1CC[C@@H]2O [ESTRADIOL] | 9.17 ×10⁻⁶ cm/s |  |  |  |  |  | 
COc1ccc(/C=C/C(=O)N2CCN(Cc3ccc(O)c4ncccc34)CC2)cc1OC | 8.82 ×10⁻⁶ cm/s | 29.4% | 18.9 µM |  |  | 1.08 equiv | 
Oc1ccc(/C=C/c2cc(O)cc(O)c2)cc1 |  |  |  |  |  | 3.28 equiv | 
COc1ccc(CCC(=O)N2CCN(Cc3ccc(O)c4ncccc34)CC2)cc1 |  | 34.3% | 18.3 µM |  |  | 2.89 equiv | 
CCn1cc(C(=O)O)c(=O)c2cc(F)c(N3CCNC(C)C3)c(F)c21 (stereo not given) [LOMEFLOXACIN] | 1.59 ×10⁻⁶ cm/s |  |  |  |  |  | 
Cc1c(C)c2c(c(C)c1O)CCC(C)(C(=O)O)O2 (stereo not given) |  |  |  |  |  |  | Active
O=C(CCc1ccc(Cl)cc1)N1CCN(Cc2ccc(O)c3ncccc23)CC1 |  | 15.6% |  |  |  | 2.57 equiv | 
